{
  "source": "ChEMBL document CHEMBL1201861",
  "about": "“Genomics of Drug Sensitity in Cancer screening data, Wellcome Trust Sanger Institute”",
  "type_in_all_cases": "functional, cell-based",
  "key": {"NCI-H1882": {"system": "NCI-H1882", "assay": "cells", "conditions": "Homo sapiens", "description": "SANGER: Inhibition of human NCI-H1882 cell growth in a cell viability assay."}, "IST-SL2": {"system": "IST-SL2", "assay": "cells", "conditions": "Homo sapiens", "description": "SANGER: Inhibition of human IST-SL2 cell growth in a cell viability assay."}, "BC-3": {"system": "BC-3", "assay": "cells", "conditions": "Homo sapiens", "description": "SANGER: Inhibition of human BC-3 cell growth in a cell viability assay."}, "K052": {"system": "K052", "assay": "cells", "conditions": "Homo sapiens", "description": "SANGER: Inhibition of human K052 cell growth in a cell viability assay."}, "D-247MG": {"system": "D-247MG", "assay": "cells", "conditions": "Homo sapiens", "description": "SANGER: Inhibition of human D-247MG cell growth in a cell viability assay."}, "LC4-1": {"system": "LC4-1", "assay": "cells", "conditions": "Homo sapiens", "description": "SANGER: Inhibition of human LC4-1 cell growth in a cell viability assay."}, "NCI-H748": {"system": "NCI-H748", "assay": "cells", "conditions": "Homo sapiens", "description": "SANGER: Inhibition of human NCI-H748 cell growth in a cell viability assay."}, "EB-3": {"system": "EB-3", "assay": "cells", "conditions": "Homo sapiens", "description": "SANGER: Inhibition of human EB-3 cell growth in a cell viability assay."}, "EB2": {"system": "EB2", "assay": "cells", "conditions": "Homo sapiens", "description": "SANGER: Inhibition of human EB2 cell growth in a cell viability assay."}, "THP-1": {"system": "THP-1", "assay": "cells", "conditions": "Homo sapiens", "description": "SANGER: Inhibition of human THP-1 cell growth in a cell viability assay."}, "TGW": {"system": "TGW", "assay": "cells", "conditions": "Homo sapiens", "description": "SANGER: Inhibition of human TGW cell growth in a cell viability assay."}, "CMK": {"system": "CMK", "assay": "cells", "conditions": "Homo sapiens", "description": "SANGER: Inhibition of human CMK cell growth in a cell viability assay."}, "ST486": {"system": "ST486", "assay": "SANGER: Inhibition of human ST486 cell growth in a cell viability assay."}, "TALL-1": {"system": "TALL-1", "assay": "cells", "conditions": "Homo sapiens", "description": "SANGER: Inhibition of human TALL-1 cell growth in a cell viability assay."}, "RPMI-6666": {"system": "RPMI-6666", "assay": "cells", "conditions": "Homo sapiens", "description": "SANGER: Inhibition of human RPMI-6666 cell growth in a cell viability assay."}, "Kasumi 1": {"system": "Kasumi 1", "assay": "cells", "conditions": "Homo sapiens", "description": "SANGER: Inhibition of human KASUMI-1 cell growth in a cell viability assay."}},
  "data": [
    {"smiles": "Cc1[nH]c(/C=C2\\C(=O)Nc3ccc(S(=O)(=O)Cc4c(Cl)cccc4Cl)cc32)c(C)c1C(=O)N1CCC[C@@H]1CN1CCCC1", "note": "[PHA-665752]", "values": [
      {"measurement": "IC50", "setting": "NCI-H1882", "value": "> 2", "unit": "µM"},
      {"measurement": "IC50", "setting": "IST-SL2", "value": "> 2", "unit": "µM"},
      {"measurement": "IC50", "setting": "BC-3", "value": "> 2", "unit": "µM"},
      {"measurement": "IC50", "setting": "K052", "value": "> 2", "unit": "µM"},
      {"measurement": "IC50", "setting": "D-247MG", "value": "> 2", "unit": "µM"},
      {"measurement": "IC50", "setting": "LC4-1", "value": "> 2", "unit": "µM"},
      {"measurement": "IC50", "setting": "NCI-H748", "value": "> 2", "unit": "µM"},
      {"measurement": "IC50", "setting": "EB-3", "value": "> 2", "unit": "µM"},
      {"measurement": "IC50", "setting": "EB2", "value": "> 2", "unit": "µM"},
      {"measurement": "IC50", "setting": "THP-1", "value": "> 2", "unit": "µM"},
      {"measurement": "IC50", "setting": "TGW", "value": "> 2", "unit": "µM"},
      {"measurement": "IC50", "setting": "CMK", "value": "> 2", "unit": "µM"},
      {"measurement": "IC50", "setting": "ST486", "value": "> 2", "unit": "µM"},
      {"measurement": "IC50", "setting": "TALL-1", "value": "> 2", "unit": "µM"},
      {"measurement": "IC50", "setting": "RPMI-6666", "value": "> 2", "unit": "µM"},
      {"measurement": "IC50", "setting": "Kasumi 1", "value": "> 2", "unit": "µM"}
    ]},
    {"smiles": "CCNc1cc(N[C@H]2CC[C@@H](O)CC2)nc(Nc2ccc3c(ccn3Cc3ccccc3)c2)n1", "values": [
      {"measurement": "IC50", "setting": "NCI-H1882", "value": "> 5.12", "unit": "µM"},
      {"measurement": "IC50", "setting": "IST-SL2", "value": 4.56, "unit": "µM"},
      {"measurement": "IC50", "setting": "BC-3", "value": "> 5.12", "unit": "µM"},
      {"measurement": "IC50", "setting": "K052", "value": "> 5.12", "unit": "µM"},
      {"measurement": "IC50", "setting": "D-247MG", "value": "> 5.12", "unit": "µM"},
      {"measurement": "IC50", "setting": "LC4-1", "value": "> 5.12", "unit": "µM"},
      {"measurement": "IC50", "setting": "NCI-H748", "value": "> 5.12", "unit": "µM"},
      {"measurement": "IC50", "setting": "EB-3", "value": "> 5.12", "unit": "µM"},
      {"measurement": "IC50", "setting": "EB2", "value": "> 5.12", "unit": "µM"},
      {"measurement": "IC50", "setting": "THP-1", "value": "> 5.12", "unit": "µM"},
      {"measurement": "IC50", "setting": "TGW", "value": "> 5.12", "unit": "µM"},
      {"measurement": "IC50", "setting": "CMK", "value": "> 5.12", "unit": "µM"},
      {"measurement": "IC50", "setting": "ST486", "value": "> 5.12", "unit": "µM"},
      {"measurement": "IC50", "setting": "TALL-1", "value": "> 5.12", "unit": "µM"},
      {"measurement": "IC50", "setting": "RPMI-6666", "value": "> 5.12", "unit": "µM"},
      {"measurement": "IC50", "setting": "Kasumi 1", "value": "> 5.12", "unit": "µM"}
    ]},
    {"smiles": "CCn1c(-c2nonc2N)nc2cnc(Oc3cccc(NC(=O)c4ccc(OCCN5CCOCC5)cc4)c3)cc21", "note": "[GSK-269962A]", "values": [
      {"measurement": "IC50", "setting": "NCI-H1882", "value": "> 2.5", "unit": "µM"},
      {"measurement": "IC50", "setting": "IST-SL2", "value": "> 2.5", "unit": "µM"},
      {"measurement": "IC50", "setting": "BC-3", "value": "> 2.5", "unit": "µM"},
      {"measurement": "IC50", "setting": "K052", "value": 0.753, "unit": "µM"},
      {"measurement": "IC50", "setting": "D-247MG", "value": 0.628, "unit": "µM"},
      {"measurement": "IC50", "setting": "LC4-1", "value": "> 2.5", "unit": "µM"},
      {"measurement": "IC50", "setting": "NCI-H748", "value": "> 2.5", "unit": "µM"},
      {"measurement": "IC50", "setting": "EB-3", "value": "> 2.5", "unit": "µM"},
      {"measurement": "IC50", "setting": "EB2", "value": "> 2.5", "unit": "µM"},
      {"measurement": "IC50", "setting": "THP-1", "value": "> 2.5", "unit": "µM"},
      {"measurement": "IC50", "setting": "TGW", "value": "> 2.5", "unit": "µM"},
      {"measurement": "IC50", "setting": "CMK", "value": 1.01, "unit": "µM"},
      {"measurement": "IC50", "setting": "ST486", "value": "> 2.5", "unit": "µM"},
      {"measurement": "IC50", "setting": "TALL-1", "value": "> 2.5", "unit": "µM"},
      {"measurement": "IC50", "setting": "RPMI-6666", "value": "> 2.5", "unit": "µM"},
      {"measurement": "IC50", "setting": "Kasumi 1", "value": "> 2.5", "unit": "µM"}
    ]}
  ]
}
